According to ChEMBL document CHEMBL1144513, “Synthesis and SAR study of novel 7-(pyridinium-3-yl)-carbonyl imidazo[5,1-b]thiazol-2-yl carbapenems” (2007):
≈ marks a conversion by molar mass, not a printed value.

How the values were obtained:
Type in all cases: functional
Staphylococcus aureus [1] = test: Antibacterial activity against Staphylococcus aureus 209P JC1 by agar dilution method
Staphylococcus aureus [2] = test: Antibacterial activity against methicillin-resistant Staphylococcus aureus M126 by agar dilution method
Staphylococcus aureus [3] = test: Antibacterial activity against carbapenem and methicillin-resistant Staphylococcus aureus M126HR by agar dilution method
Streptococcus pneumoniae = test: Antibacterial activity against penicillin-resistant Streptococcus pneumoniae KK133 by agar dilution method
Escherichia coli = test: Antibacterial activity against Escherichia coli NIHJ JC2 by agar dilution method
Klebsiella pneumoniae = test: Antibacterial activity against Klebsiella pneumoniae GN69 by agar dilution method
Moraxella catarrhalis = test: Antibacterial activity against Moraxella catarrhalis W-0500 by agar dilution method
Haemophilus influenzae = test: Antibacterial activity against beta-lactamase-negative ampicillin-resistant Haemophilus influenzae 870 by agar dilution method

SMILES	MIC (Staphylococcus aureus [1])	MIC (Staphylococcus aureus [2])	MIC (Staphylococcus aureus [3])	MIC (Streptococcus pneumoniae)	MIC (Escherichia coli)	MIC (Klebsiella pneumoniae)	MIC (Moraxella catarrhalis)	MIC (Haemophilus influenzae)
C[C@@H](O)[C@H]1C(=O)N2C(C(=O)O)=C(c3cn4cnc(C(=O)c5cccs5)c4s3)[C@H](C)[C@H]12	≤ 0.008 µg/mL	0.031 µg/mL (≈ 0.0699 µM)	4 µg/mL (≈ 9.02 µM)	0.125 µg/mL (≈ 0.282 µM)	2 µg/mL (≈ 4.51 µM)	4 µg/mL (≈ 9.02 µM)	0.016 µg/mL (≈ 0.0361 µM)	0.125 µg/mL (≈ 0.282 µM)
C[C@@H](O)[C@H]1C(=O)N2C(C(=O)[O-])=C(c3cn4cnc(C(=O)c5ccc[n+](CCS(C)(=O)=O)c5)c4s3)[C@H](C)[C@H]12	≤ 0.008 µg/mL	1 µg/mL (≈ 1.84 µM)	4 µg/mL (≈ 7.34 µM)	0.031 µg/mL (≈ 0.0569 µM)	0.5 µg/mL (≈ 0.918 µM)	0.5 µg/mL (≈ 0.918 µM)	0.016 µg/mL (≈ 0.0294 µM)	0.063 µg/mL (≈ 0.116 µM)
COCc1nc(C(=O)c2ccc[n+](CC(N)=O)c2)c2sc(C3=C(C(=O)[O-])N4C(=O)[C@H]([C@@H](C)O)[C@H]4[C@H]3C)cn12	0.031 µg/mL (≈ 0.0575 µM)	2 µg/mL (≈ 3.71 µM)	4 µg/mL (≈ 7.41 µM)	0.063 µg/mL (≈ 0.117 µM)	8 µg/mL (≈ 14.8 µM)	4 µg/mL (≈ 7.41 µM)	0.031 µg/mL (≈ 0.0575 µM)	0.063 µg/mL (≈ 0.117 µM)
C[C@@H](O)[C@H]1C(=O)N2C(C(=O)[O-])=C(c3cn4cnc(C(=O)c5ccc[n+](CC(=O)O)c5)c4s3)[C@H](C)[C@H]12	0.031 µg/mL (≈ 0.0624 µM)	2 µg/mL (≈ 4.03 µM)	8 µg/mL (≈ 16.1 µM)	0.063 µg/mL (≈ 0.127 µM)	0.031 µg/mL (≈ 0.0624 µM)	0.063 µg/mL (≈ 0.127 µM)	0.031 µg/mL (≈ 0.0624 µM)	0.063 µg/mL (≈ 0.127 µM)
C[C@@H](O)[C@H]1C(=O)N2C(C(=O)[O-])=C(c3cn4cnc(C(=O)c5ccc[n+](CC(=O)C(F)(F)F)c5)c4s3)[C@H](C)[C@H]12	0.016 µg/mL (≈ 0.0292 µM)	1 µg/mL (≈ 1.82 µM)	4 µg/mL (≈ 7.29 µM)	0.063 µg/mL (≈ 0.115 µM)	0.125 µg/mL (≈ 0.228 µM)	0.25 µg/mL (≈ 0.456 µM)	0.031 µg/mL (≈ 0.0565 µM)	0.063 µg/mL (≈ 0.115 µM)
C[C@@H](O)[C@H]1C(=O)N2C(C(=O)[O-])=C(c3cn4cnc(C(=O)c5ccc[n+](Cc6ccccc6)c5)c4s3)[C@H](C)[C@H]12	≤ 0.008 µg/mL	0.5 µg/mL (≈ 0.946 µM)	4 µg/mL (≈ 7.57 µM)	0.016 µg/mL (≈ 0.0303 µM)	0.5 µg/mL (≈ 0.946 µM)	1 µg/mL (≈ 1.89 µM)	0.063 µg/mL (≈ 0.119 µM)	0.063 µg/mL (≈ 0.119 µM)
CN[C@H](CC(C)C)C(=O)N[C@H]1C(=O)N[C@@H](CC(N)=O)C(=O)N[C@H]2C(=O)N[C@H]3C(=O)N[C@H](C(=O)N[C@H](C(=O)O)c4cc(O)cc(O)c4-c4cc3ccc4O)[C@H](O)c3ccc(c(Cl)c3)Oc3cc2cc(c3O[C@@H]2O[C@H](CO)[C@@H](O)[C@H](O)[C@H]2O[C@H]2C[C@](C)(N)[C@H](O)[C@H](C)O2)Oc2ccc(cc2Cl)[C@H]1O [VANCOMYCIN]	–	–	–	0.5 µg/mL (≈ 0.345 µM)	> 128 µg/mL	> 128 µg/mL	64 µg/mL (≈ 44.2 µM)	> 128 µg/mL
C[C@@H](O)[C@H]1C(=O)N2C(C(=O)O)=C(c3cn4cnc(C(=O)c5cn(C)c6ccccc56)c4s3)[C@H](C)[C@H]12	0.008 µg/mL (≈ 0.0163 µM)	0.031 µg/mL (≈ 0.0632 µM)	8 µg/mL (≈ 16.3 µM)	0.125 µg/mL (≈ 0.255 µM)	4 µg/mL (≈ 8.15 µM)	8 µg/mL (≈ 16.3 µM)	0.016 µg/mL (≈ 0.0326 µM)	0.125 µg/mL (≈ 0.255 µM)
C[C@@H](O)[C@H]1C(=O)N2C(C(=O)[O-])=C(c3cn4cnc(C(=O)c5ccc[n+](CCNS(N)(=O)=O)c5)c4s3)[C@H](C)[C@H]12	≤ 0.008 µg/mL	1 µg/mL (≈ 1.78 µM)	2 µg/mL (≈ 3.57 µM)	0.031 µg/mL (≈ 0.0553 µM)	0.031 µg/mL (≈ 0.0553 µM)	0.063 µg/mL (≈ 0.112 µM)	0.016 µg/mL (≈ 0.0285 µM)	0.063 µg/mL (≈ 0.112 µM)
C[C@@H](O)[C@H]1C(=O)N2C(C(=O)O)=C(c3cn4cnc(C(=O)c5cnc6ccccc6c5)c4s3)[C@H](C)[C@H]12	≤ 0.008 µg/mL	0.016 µg/mL (≈ 0.0328 µM)	2 µg/mL (≈ 4.09 µM)	0.031 µg/mL (≈ 0.0635 µM)	4 µg/mL (≈ 8.19 µM)	8 µg/mL (≈ 16.4 µM)	0.031 µg/mL (≈ 0.0635 µM)	0.125 µg/mL (≈ 0.256 µM)
CSc1nc(C(=O)c2ccc[n+](CC(N)=O)c2)c2sc(C3=C(C(=O)[O-])N4C(=O)[C@H]([C@@H](C)O)[C@H]4[C@H]3C)cn12	0.008 µg/mL (≈ 0.0148 µM)	0.5 µg/mL (≈ 0.923 µM)	1 µg/mL (≈ 1.85 µM)	0.016 µg/mL (≈ 0.0295 µM)	4 µg/mL (≈ 7.39 µM)	4 µg/mL (≈ 7.39 µM)	0.016 µg/mL (≈ 0.0295 µM)	0.031 µg/mL (≈ 0.0572 µM)
C[C@@H](O)[C@H]1C(=O)N2C(C(=O)O)=C(c3cn4cnc(C(=O)[C@@H]5C[C@@H](O)CN5)c4s3)[C@H](C)[C@H]12	0.016 µg/mL (≈ 0.0358 µM)	1 µg/mL (≈ 2.24 µM)	4 µg/mL (≈ 8.96 µM)	0.063 µg/mL (≈ 0.141 µM)	0.063 µg/mL (≈ 0.141 µM)	0.125 µg/mL (≈ 0.28 µM)	0.031 µg/mL (≈ 0.0694 µM)	0.125 µg/mL (≈ 0.28 µM)
C[C@@H](O)[C@H]1C(=O)N2C(C(=O)[O-])=C(c3cn4c(C5CC5)nc(C(=O)c5ccc[n+](CC(N)=O)c5)c4s3)[C@H](C)[C@H]12	0.016 µg/mL (≈ 0.0299 µM)	0.5 µg/mL (≈ 0.934 µM)	2 µg/mL (≈ 3.73 µM)	0.031 µg/mL (≈ 0.0579 µM)	4 µg/mL (≈ 7.47 µM)	4 µg/mL (≈ 7.47 µM)	0.016 µg/mL (≈ 0.0299 µM)	0.031 µg/mL (≈ 0.0579 µM)
C[C@@H](O)[C@H]1C(=O)N2C(C(=O)[O-])=C(c3cn4cnc(C(=O)c5ccc[n+](C)c5)c4s3)[C@H](C)[C@H]12	≤ 0.008 µg/mL	1 µg/mL (≈ 2.21 µM)	4 µg/mL (≈ 8.84 µM)	0.031 µg/mL (≈ 0.0685 µM)	0.063 µg/mL (≈ 0.139 µM)	0.063 µg/mL (≈ 0.139 µM)	0.031 µg/mL (≈ 0.0685 µM)	0.063 µg/mL (≈ 0.139 µM)
C[C@@H](O)[C@H]1C(=O)N2C(C(=O)[O-])=C(c3cn4cnc(C(=O)c5ccc[n+](CC(N)=O)c5)c4s3)[C@H](C)[C@H]12	≤ 0.008 µg/mL	0.5 µg/mL (≈ 1.01 µM)	2 µg/mL (≈ 4.04 µM)	0.031 µg/mL (≈ 0.0626 µM)	0.031 µg/mL (≈ 0.0626 µM)	0.063 µg/mL (≈ 0.127 µM)	0.016 µg/mL (≈ 0.0323 µM)	0.063 µg/mL (≈ 0.127 µM)
Cc1nc(C(=O)c2ccc[n+](CC(N)=O)c2)c2sc(C3=C(C(=O)[O-])N4C(=O)[C@H]([C@@H](C)O)[C@H]4[C@H]3C)cn12	0.016 µg/mL (≈ 0.0314 µM)	1 µg/mL (≈ 1.96 µM)	4 µg/mL (≈ 7.85 µM)	0.031 µg/mL (≈ 0.0608 µM)	0.25 µg/mL (≈ 0.491 µM)	0.5 µg/mL (≈ 0.981 µM)	0.008 µg/mL (≈ 0.0157 µM)	0.063 µg/mL (≈ 0.124 µM)
C[C@@H](O)[C@H]1C(=O)N2C(C(=O)O)=C(c3cn4cnc(C(=O)c5ccncc5)c4s3)[C@H](C)[C@H]12	≤ 0.008 µg/mL	0.063 µg/mL (≈ 0.144 µM)	4 µg/mL (≈ 9.12 µM)	0.031 µg/mL (≈ 0.0707 µM)	2 µg/mL (≈ 4.56 µM)	2 µg/mL (≈ 4.56 µM)	0.031 µg/mL (≈ 0.0707 µM)	0.031 µg/mL (≈ 0.0707 µM)
CC(=O)C[n+]1cccc(C(=O)c2ncn3cc(C4=C(C(=O)[O-])N5C(=O)[C@H]([C@@H](C)O)[C@H]5[C@H]4C)sc23)c1	0.016 µg/mL (≈ 0.0324 µM)	1 µg/mL (≈ 2.02 µM)	4 µg/mL (≈ 8.09 µM)	0.063 µg/mL (≈ 0.127 µM)	0.125 µg/mL (≈ 0.253 µM)	0.25 µg/mL (≈ 0.506 µM)	0.031 µg/mL (≈ 0.0627 µM)	0.063 µg/mL (≈ 0.127 µM)
C[C@@H](O)[C@H]1C(=O)N2C(C(=O)[O-])=C(c3cn4c(N5CCOCC5)nc(C(=O)c5ccc[n+](CC(N)=O)c5)c4s3)[C@H](C)[C@H]12	0.031 µg/mL (≈ 0.0534 µM)	2 µg/mL (≈ 3.44 µM)	8 µg/mL (≈ 13.8 µM)	0.063 µg/mL (≈ 0.109 µM)	16 µg/mL (≈ 27.6 µM)	16 µg/mL (≈ 27.6 µM)	0.063 µg/mL (≈ 0.109 µM)	0.125 µg/mL (≈ 0.215 µM)
C[C@@H](O)[C@H]1C(=O)N2C(C(=O)O)=C(c3cn4cnc(C(=O)[C@@H]5CCCN5)c4s3)[C@H](C)[C@H]12	≤ 0.008 µg/mL	1 µg/mL (≈ 2.32 µM)	4 µg/mL (≈ 9.29 µM)	0.063 µg/mL (≈ 0.146 µM)	0.125 µg/mL (≈ 0.29 µM)	0.125 µg/mL (≈ 0.29 µM)	0.031 µg/mL (≈ 0.072 µM)	0.125 µg/mL (≈ 0.29 µM)
CSc1c2sc(C3=C(C(=O)[O-])N4C(=O)[C@H]([C@@H](C)O)[C@H]4[C@H]3C)cn2c[n+]1CC(N)=O	0.008 µg/mL (≈ 0.0183 µM)	1 µg/mL (≈ 2.29 µM)	4 µg/mL (≈ 9.16 µM)	0.031 µg/mL (≈ 0.071 µM)	0.016 µg/mL (≈ 0.0367 µM)	0.031 µg/mL (≈ 0.071 µM)	0.031 µg/mL (≈ 0.071 µM)	0.5 µg/mL (≈ 1.15 µM)
